Experimental findings from a melting point compilation (Tetko et al.; mined from patent text by program, amines drawn as free bases though some values may be those of a salt) are described below.

The structures appear in SMILES notation.

The melting point is the temperature, or range, at which the solid turns liquid. `CCOC(=O)C1=C(C)NC(C)=C(C(=O)OCC)C1c1cc2ccccc2s1` displayed a melting point of 167 to 169 °C. As for `CO/C(=C\c1ccc(OCCc2nc(-c3ccccc3)oc2C)c2ccsc12)C(=O)O`, the melting point lay within 189 to 190 °C.

Consider `CC(CCCO)C1CCC2C3C(OCc4ccccc4)CC4CC(OC5CCCCO5)CCC4(C)C3CCC12C` (configuration not stated), for which the melting point was in the range of 52 to 55 °C. The same measure for `COc1ccc(N2C(=S)N(c3ccc(Oc4ccccc4)cc3)C(=O)C2C)cc1` (configuration not stated): 208 to 210 °C; for `O=c1ccc(Oc2ccccc2)n[nH]1`: 148 °C. For `CCOCc1nc2c(N)nc3cc(-c4ccc(F)c(F)c4)cnc3c2n1CC(C)(C)O` the value was 193 to 195 °C.

In the case of `O=C1C=CC(=Nc2ccccc2C(=O)N2CCCCC2)C=C1`, the melting point lay in the range of 74 to 76 °C.

In turn, `Cc1cn(C(C)C(=O)c2ccc(Cl)cc2)c(=O)n1-c1ccc(N2CCN(c3ccc(O)cc3)CC2)cc1` (configuration not stated) yielded a melting point of 230 °C. For `CS(=O)(=O)Nc1ccc(CCCOCCCCCCNCC(O)c2ccc(O)c(CO)c2)cc1` (configuration not stated) the value was 48 to 50 °C. For `N#CC(C=O)c1ccccc1` (configuration not stated) the value was 161 to 163 °C; for `Cc1cc2c(-c3cccc(/C=C/c4nnn[nH]4)c3)c(CC(=O)Nc3ccc(F)cc3C(F)(F)F)c(=O)oc2cc1Cl`, 216 to 218 °C; for `NS(=O)(=O)c1ccc(-c2noc(-c3cnn4c(C(F)(F)F)cc(-c5ccc(C(F)(F)F)c(OCC(F)(F)F)c5)nc34)n2)s1`, 255 °C.

On to `O=C(N[C@H]1CC[C@H](CCN2CCN(c3nccc4c3OCC4)CC2)CC1)c1ccc(-c2cccnc2)cc1`, for which the melting point came to 235 °C. For the compound `C(=C(c1ccccc1)c1ccccc1)c1ccc(N(c2ccccc2)c2ccc3c4c(cccc24)CC3)cc1`, the melting point fell in the range of 189 to 190 °C. The same measure for `Cc1cc(SC2=C(O)CC(CCc3ccc(O)cc3)(CCc3ccc(O)cc3)OC2=O)c(C(C)(C)C)cc1OS(=O)(=O)N1CCN(C)CC1`: 150 °C; for `NS(=O)(=O)Oc1cccc(C(=O)c2ccccc2)c1`: 72 to 74 °C.

In turn, `COc1cc(Nc2nc3cccc(-c4cccnc4)c3o2)cc(OC)c1OC` displayed a melting point of 165 to 170 °C. The compound `CC(C)(C#N)c1cc(Cn2ccnc2)cc(C(N)=O)c1` registered a melting point of 149 to 150 °C. As to `CC(C)(N)c1ccc(-c2nc(Nc3ccc(-n4ccnn4)cc3)ncc2C#N)cc1`, the melting point was in the range of 139 to 140 °C. The same measure for `CCCCc1nc(C(O)C(C)C)c(C(N)=O)n1Cc1ccc(-c2ccccc2-c2nnn[nH]2)cc1` (configuration not stated): 155 to 157 °C; for `CCCc1ccnc(C(N)=O)c1C(N)=O`: 178 to 179 °C. For `O=Cc1cccc([N+]([O-])=Cc2cccc([N+](=O)[O-])c2)c1` the value was 195 to 197 °C; for `O=c1[nH]c(N2CCNC(CO)C2)cc2ccccc12` (configuration not stated), greater than 120 °C; for `Nc1cc(C(=O)NC2CC2)n(-c2nc(Cl)nc3ccoc23)n1`, 219 °C. For `c1ccc2c(c1)Cc1cc(C3(Cn4cncn4)OCCO3)ccc1-2` the value was 187 °C; for `CN(C)C(=O)c1cc(Cl)c(N)c(Cl)c1`, 134 °C; for `CC(=O)OCC1OC(n2cc(C3=C(c4c[nH]c5ccccc45)C(=O)N(C)C3=O)c3cccnc32)C(OC(C)=O)C(OC(C)=O)C1OC(C)=O` (configuration not stated), 119 to 121 °C.

Turning to `CC(C)c1nc(N)c(N)c(=O)[nH]1`, the melting point was 198 to 200 °C. Compound `Nc1cc(C(O)=S)cc(Cc2ccccc2)c1Cc1ccccc1` came in with a melting point of 256 to 257 °C. The same measure for `CC(=O)CCc1ccc(C(N)=O)cc1`: 152 to 154 °C.

`CCN(CC)Cc1cc(/C=C/C(=O)Nc2ccccc2C(=O)O)ccc1OC` showed a melting point of 202 to 205 °C. `O=c1cc(CO)n(Cc2ccccc2)cc1OCc1ccccc1`: the melting point was in the range of 146 to 147 °C.

Compound `CC1(CN2CCC(=O)CC2)Cn2cc([N+](=O)[O-])nc2O1` (configuration not stated) displayed a melting point of 124 to 126 °C. Consider `COc1ccc(Nc2ncc3c(n2)-c2sc(C)nc2CC3)cn1`, for which the melting point lay within 210 to 211 °C. For `N=C(N)Nc1ncc(Cl)c2ccc(C(=O)NCCC(=O)O)cc12` the value was 235 to 236 °C. The same measure for `FC(F)(F)c1nn(-c2c(Cl)cc(Cl)cc2Cl)cc1Br`: 93 to 94 °C. For `c1ccc2c3cncc-3cncc2c1` the value was 220 to 221 °C. The compound `Cn1cnc2c(=O)[nH]c(N)nc21` returned a melting point greater than 300 °C. For `CCc1cc(=O)c2c([nH]1)CCOC2` the value was 238 to 240 °C; for `CCOC(=O)C1=Cc2cc(Cl)c(Oc3ccc(CC)cc3)cc2OC1C(F)(F)F` (configuration not stated), 109 to 110 °C; for `O=C1Nc2cccnc2N(C(=O)CN2CCCCC2CN2CCOCC2)c2ccccc21` (configuration not stated), 203 to 205 °C. In turn, `O=C1CC(c2cccc(Cl)c2)c2cc(C(=O)c3ccc([N+](=O)[O-])cc3)ccc2N1` (configuration not stated) showed a melting point of 147 °C. `COc1ccc(C(=O)NC(=O)Nc2ccc3c(c2)NC(=O)/C3=C\c2ccncc2)cc1`: the melting point was 270 to 275 °C. The same measure for `O=C(NCCCC[C@H](O)C(=O)O)OCc1ccccc1`: 79 to 81 °C. For `OCCNc1nnc(-c2ccc(F)c(F)c2Nc2ccc(I)cc2F)o1` the value was 100 to 103 °C; for `CC(C)Oc1nccc2c1C(c1ccccc1C(F)(F)F)c1c(ccnc1OC(C)C)N2`, 196 to 197 °C; for `Cc1c(C)c2c(c(C)c1N)CC(C)(CNCCN1CCCCC1)O2` (configuration not stated), 102 to 104 °C.

`CNC(=O)[C@H]1CN(c2ccc3c(c2)oc(=O)n3C)C(=O)O1`: the melting point was 304 to 306 °C. The same measure for `N#Cc1c(Cl)nc2ccc([N+](=O)[O-])cc2c1Cl`: 190 to 192 °C; for `O=C=Nc1ccc(OC(=O)CCC(=O)Oc2ccc(N=C=O)cc2)cc1`: 193 to 195 °C. The same measure for `CC1CC(=O)NN=C1c1ccc(NC(=O)OC(C)C2CC2)cc1` (configuration not stated): 223 to 224 °C. Compound `O=S1(=O)c2cccc3cccc(c23)N1CCCN1CCC(n2c(O)nc3ccccc32)CC1` yielded a melting point of 253 °C. For `CCCCc1nc2c(c(C)c(C)n3nnnc23)n1CC(C)(C)NC(=O)NC1CCCCC1` the value was 194 to 197 °C; for `COc1ccc(C(=O)Cc2ccc3c(c2)OCO3)cc1OC`, 110 to 111 °C. On to `CC(=O)Nc1nc2c(ncn2COCC(COC(C)=O)OC(C)=O)c(=O)[nH]1` (configuration not stated), for which the melting point lay in the range of 162 to 165 °C. The same measure for `COC(=O)CCn1c2ccc(O)cc2c2c3c(c(-c4ccccc4Cl)cc21)C(=O)NC3=O`: 218 to 220 °C; for `COc1ccc(CC(C(=O)Nc2nc3ccccc3o2)c2ccc(S(C)(=O)=O)cc2)cc1` (configuration not stated): 102 to 106 °C; for `CCCCCCCCCCCc1cc2ccc(C(=O)OCC)cc2[nH]1`: 84 to 86 °C.

Compound `COc1cc(O)c2c(=O)c3ccccc3n(C)c2c1` displayed a melting point of 162 to 164 °C.

For the compound `Cc1cccc(C)c1NC(=O)CN1CCNCC1CC(N)=O` (configuration not stated), the melting point is 172 °C.

In turn, `Cc1ccc2c(c1)CC(Cl)c1cc(F)ccc1S2` (configuration not stated) displayed a melting point of 63 to 64 °C. The same measure for `Oc1ccc(Nc2nc(Cl)nc(NCc3ccco3)n2)cc1`: 188 to 190 °C.
